The record followed here is BindingDB's records for patent US20240270732 (Chengdu Biobel Biotechnology Co., 2024).

The assay addresses T1, Receptor-interacting serine/threonine-protein kinase 1 (Homo sapiens, UniProt Q13546).
T1 sequence (Q13546 whole entry): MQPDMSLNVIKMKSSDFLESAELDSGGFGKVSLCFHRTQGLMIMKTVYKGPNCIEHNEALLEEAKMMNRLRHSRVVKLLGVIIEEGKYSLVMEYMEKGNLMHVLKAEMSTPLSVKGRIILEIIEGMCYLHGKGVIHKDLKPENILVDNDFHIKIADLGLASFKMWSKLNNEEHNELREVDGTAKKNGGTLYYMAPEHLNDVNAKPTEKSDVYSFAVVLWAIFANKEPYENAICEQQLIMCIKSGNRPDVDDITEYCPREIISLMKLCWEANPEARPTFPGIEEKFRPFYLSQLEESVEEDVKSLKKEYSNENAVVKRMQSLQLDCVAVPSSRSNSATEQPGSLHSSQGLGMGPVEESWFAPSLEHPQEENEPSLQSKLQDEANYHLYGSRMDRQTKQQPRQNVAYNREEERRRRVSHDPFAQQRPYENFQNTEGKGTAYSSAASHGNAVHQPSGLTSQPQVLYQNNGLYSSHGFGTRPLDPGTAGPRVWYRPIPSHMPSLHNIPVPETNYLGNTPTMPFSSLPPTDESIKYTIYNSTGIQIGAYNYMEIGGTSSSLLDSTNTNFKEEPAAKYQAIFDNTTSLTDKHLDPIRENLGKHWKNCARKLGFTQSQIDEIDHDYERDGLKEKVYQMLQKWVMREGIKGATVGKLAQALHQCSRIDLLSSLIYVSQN
As to the kind of experiment: Inhibitory Activity Assay. Here is the method: The compound of the present invention and the control compound were dissolved in the assay buffer (50 mM Hepes pH 7.5, 50 mM NaCl, 30 mM MgCl2, 1 mM DTT, 0.02% CHAPS, 0.5 mg/mL BSA), and diluted in a ratio of 1:1.5 using a 22-point titration (high concentration 2 μM), and then added to a 384-well plate. […] After completion of the reaction, 5 μL of ADP-Glo reagent containing 0.02% CHAPS was added to each well and incubated at room temperature for 1 h to terminate the kinase reaction and use up all remaining ATP. Then, 5 μL of ADP-Glo detection solution containing 0.02% CHAPS was added to each well and incubated at room temperature for 30 min to measure the emittance intensity.
`C#CCN1CCN(CC#Cc2ccc3c(c2)N(C)C(=O)[C@@H](NC(=O)c2ncc(Cc4ccccc4)o2)[C@@H](C)O3)CC1` [US20240270732, Compound I-43] displayed an IC50 of 12.7 nM.

Consider `C[C@@H]1Oc2ccc(C#CCN3CCN(CC#Cc4ccc5c(c4)N(C)C(=O)[C@@H](NC(=O)c4cn(Cc6ccccc6)cn4)[C@H](C)O5)CC3)cc2N(C)C(=O)[C@H]1NC(=O)c1cn(Cc2ccccc2)cn1` [US20240270732, Compound I-64], for which half-maximal inhibition (IC50) was put at 62.2 nM. The result for `C[C@H]1Oc2ccc(C#CCN3CCN(CC#Cc4ccc5c(c4)N(C)C(=O)[C@@H](NC(=O)c4n[nH]c(Cc6cccc(O)c6)n4)[C@@H](C)O5)CC3)cc2N(C)C(=O)[C@H]1NC(=O)c1n[nH]c(Cc2cccc(O)c2)n1` [US20240270732, Compound I-70] reads 18.2 nM; that for `C[C@H]1Oc2ccc(CCCN3CCN(CCCc4ccc5c(c4)N(C)C(=O)[C@@H](NC(=O)c4ncn(Cc6ccccc6)n4)[C@@H](C)O5)CC3)cc2N(C)C(=O)[C@H]1NC(=O)c1ncn(Cc2ccccc2)n1` [US20240270732, Compound I-122], 3.18 nM. In turn, `C[C@H]1Oc2ccc(C#CCN3CCN(CC#Cc4ccc5c(c4)N(C)C(=O)[C@@H](NC(=O)c4nnn(Cc6ccccc6)n4)[C@@H](C)O5)CC3)cc2N(C)C(=O)[C@H]1NC(=O)c1nnn(Cc2ccccc2)n1` [US20240270732, Compound I-56] showed an IC50 of 7.44 nM. This IC50 is about 2.3-fold higher than that of the compound before. On to `CN1C(=O)[C@@H](NC(=O)c2n[nH]c(Cc3ccccc3)n2)COc2ccc(C#CCN3CCN(CC#CC#CCN4CCN(CC#Cc5ccc6c(c5)N(C)C(=O)[C@@H](NC(=O)c5n[nH]c(Cc7ccccc7)n5)CO6)CC4)CC3)cc21` [US20240270732, Compound I-92], for which the IC50 was determined as 5.89 nM. This IC50 and that of the compound before are within 1.5-fold of each other. `C#CCN1CCN(CC#Cc2ccc3c(c2)N(C)C(=O)[C@@H](NC(=O)c2nnn(Cc4ccccc4)n2)CO3)CC1` [US20240270732, Compound I-57] returned an IC50 of 8.09 nM. The IC50 values of the last two compounds are within 1.5-fold of each other. Consider `CN1C(=O)[C@@H](NC(=O)c2n[nH]c(Cc3ccccc3)n2)COc2ccc(C#CCN3CCN(CC#Cc4ccc5c(c4)N(C)C(=O)[C@@H](NC(=O)c4ncn(Cc6ccccc6)n4)CO5)CC3)cc21` [US20240270732, Compound I-13], for which 3.22 nM corresponded to half-maximal inhibition (IC50). For `C[C@H]1Oc2ccc(CCCN3CCN(CCCc4ccc5c(c4)N(C)C(=O)[C@@H](NC(=O)c4n[nH]c(Cc6ccccc6)n4)[C@@H](C)O5)CC3)cc2N(C)C(=O)[C@H]1NC(=O)c1n[nH]c(Cc2ccccc2)n1` [US20240270732, Compound I-124], the IC50 was determined as 4.84 nM. Compound `C[C@H]1Oc2ccc(C#CCN3CCN(CC#CC#CCN4CCN(CC#Cc5ccc6c(c5)N(C)C(=O)[C@@H](NC(=O)c5ncn(Cc7ccccc7)n5)[C@@H](C)O6)CC4)CC3)cc2N(C)C(=O)[C@H]1NC(=O)c1ncn(Cc2ccccc2)n1` [US20240270732, Compound I-93] showed an IC50 of 5.73 nM.

As for `C[C@@H]1Oc2ccc(C#CCN3CCN(CC#Cc4ccc5c(c4)N(C)C(=O)[C@@H](NC(=O)c4n[nH]c(Cc6ccccc6)n4)[C@H](C)O5)CC3)cc2N(C)C(=O)[C@H]1NC(=O)c1n[nH]c(Cc2ccccc2)n1` [US20240270732, Compound I-19], the IC50 turned out to be 62.3 nM. Turning to `CN1C(=O)[C@@H](NC(=O)c2ncn(Cc3ccccc3)n2)COc2ccc(CCCN3CCN(CCCc4ccc5c(c4)N(C)C(=O)[C@@H](NC(=O)c4ncn(Cc6ccccc6)n4)CO5)CC3)cc21` [US20240270732, Compound I-121], the midpoint of inhibition, the IC50, lay at 4.92 nM. In the case of `C#CCN1CCN(CC#Cc2ccc3c(c2)N(C)C(=O)[C@@H](NC(=O)c2nnn(Cc4ccccc4)n2)[C@@H](C)O3)CC1` [US20240270732, Compound I-55], the IC50 came out at 8.91 nM. The result for `C[C@H]1Oc2ccc(C#CCN3CCN(CC#Cc4ccc5c(c4)N(C)C(=O)[C@@H](NC(=O)c4noc(Cc6ccccc6)n4)[C@@H](C)O5)CC3)cc2N(C)C(=O)[C@H]1NC(=O)c1noc(Cc2ccccc2)n1` [US20240270732, Compound I-52] reads 13.3 nM.

In turn, `C#CCN1CCN(CC#Cc2ccc3c(c2)N(C)C(=O)[C@@H](NC(=O)c2cn(Cc4ccccc4)nn2)[C@@H](C)O3)CC1` [US20240270732, Compound I-53] had an IC50 of 15.1 nM. This IC50 and that of the compound before are within 1.5-fold of each other. As for `COCCOCCOCCOCCOCC#Cc1ccc2c(c1)N(C)C(=O)[C@@H](NC(=O)c1ncn(Cc3ccccc3)n1)[C@@H](C)O2` [US20240270732, Compound I-101], the IC50 amounted to 2.54 nM. `C#CCN1CCN(CC#Cc2ccc3c(c2)NC(=O)[C@@H](NC(=O)c2n[nH]c(Cc4ccccc4)n2)CO3)CC1` [US20240270732, Compound I-20] gave an IC50 of 9.44 nM. In turn, `C[C@H]1Oc2ccc(C#Cc3cccc(N)c3)cc2N(C)C(=O)[C@H]1NC(=O)c1ncn(Cc2ccccc2)n1` [US20240270732, Compound I-118] came in with an IC50 of 13.8 nM. Take `C[C@H]1Oc2ccc(C#CCN3CCN(CC#Cc4ccc5c(c4)N(C)C(=O)[C@@H](NC(=O)c4ncn(Cc6ccccc6)n4)CO5)CC3)cc2N(C)C(=O)[C@H]1NC(=O)c1ncn(Cc2ccccc2)n1` [US20240270732, Compound I-31]: the IC50 turned out to be 2.95 nM. As for `C[C@H]1Oc2ccc(C#CCOCCOCCOCCOCCOCC#Cc3ccc4c(c3)N(C)C(=O)[C@@H](NC(=O)c3ncn(Cc5ccccc5)n3)CO4)cc2N(C)C(=O)[C@H]1NC(=O)c1ncn(Cc2ccccc2)n1` [US20240270732, Compound I-86], the IC50 came to 7.91 nM. Consider `C[C@H]1Oc2ccc(C#CCCCCC#Cc3ccc4c(c3)N(C)C(=O)[C@@H](NC(=O)c3n[nH]c(Cc5ccccc5)n3)[C@@H](C)O4)cc2N(C)C(=O)[C@H]1NC(=O)c1n[nH]c(Cc2ccccc2)n1` [US20240270732, Compound I-79], for which the concentration for half-maximal inhibition (IC50) was 10.5 nM. The value for `C[C@H]1Oc2ccc(C#Cc3cccc(S(=O)(=O)O)c3)cc2N(C)C(=O)[C@H]1NC(=O)c1ncn(Cc2ccccc2)n1` [US20240270732, Compound I-114] was 11.7 nM; that for `CN1C(=O)[C@@H](NC(=O)c2nnn(Cc3ccccc3)n2)COc2ccc(C#CCN3CCN(CC#Cc4ccc5c(c4)N(C)C(=O)[C@@H](NC(=O)c4nnn(Cc6ccccc6)n4)CO5)CC3)cc21` [US20240270732, Compound I-58] was 6.16 nM.

On to `C[C@H]1Oc2ccc(C#CCN3CCN(CC#Cc4ccc5c(c4)N(C)C(=O)[C@@H](NC(=O)c4cn(Cc6ccccc6)cn4)CO5)CC3)cc2N(C)C(=O)[C@H]1NC(=O)c1n[nH]c(Cc2ccccc2)n1` [US20240270732, Compound I-9], for which 8.72 nM corresponded to half-maximal inhibition (IC50). For the compound `CN1C(=O)[C@@H](NC(=O)c2cn(Cc3ccccc3)cn2)COc2ccc(C#CCN3CCN(CC#Cc4ccc5c(c4)N(C)C(=O)[C@@H](NC(=O)c4ncn(Cc6ccccc6)n4)CO5)CC3)cc21` [US20240270732, Compound I-34], the IC50 was 4.68 nM. `C[C@H]1Oc2ccc(C#CCN3CCN(CC#Cc4ccc5c(c4)N(C)C(=O)[C@@H](NC(=O)c4ncn(Cc6ccccc6)n4)[C@@H](C)O5)CC3)cc2N(C)C(=O)[C@H]1NC(=O)c1ncn(Cc2ccccc2)n1` [US20240270732, Compound I-23] showed an IC50 of 4.66 nM. The IC50 values of the last two compounds are within 1.5-fold of each other.

For `C[C@H]1Oc2ccc(C#CCN3CCN(CC#Cc4ccc5c(c4)N(C)C(=O)[C@@H](NC(=O)c4n[nH]c(Cc6ccccc6)n4)CO5)CC3)cc2N(C)C(=O)[C@H]1NC(=O)c1n[nH]c(Cc2ccccc2)n1` [US20240270732, Compound I-3], 7.22 nM corresponded to half-maximal inhibition (IC50). In turn, `C[C@H]1Oc2ccc(C#CCN3CCN(CC#Cc4ccc5c(c4)N(C)C(=O)[C@@H](NC(=O)c4ncn(Cc6cccc(N)c6)n4)[C@@H](C)O5)CC3)cc2N(C)C(=O)[C@H]1NC(=O)c1ncn(Cc2cccc(N)c2)n1` [US20240270732, Compound I-78] yielded an IC50 of 23.1 nM.

Compound `C[C@H]1Oc2ccc(C#CCN3CCN(CC#Cc4ccc5c(c4)N(C)C(=O)[C@@H](NC(=O)c4nnn(Cc6ccccc6)n4)[C@@H](C)O5)CC3)cc2N(C)C(=O)[C@H]1NC(=O)c1ncn(Cc2ccccc2)n1` [US20240270732, Compound I-25] came in with an IC50 of 3.39 nM. Compared with the last compound, the IC50 is about 6.8-fold lower. The result for `C[C@H]1Oc2ccc(C#CCN3CCN(CC#Cc4ccc5c(c4)N(C)C(=O)[C@@H](NC(=O)c4cn(Cc6ccccc6)cn4)CO5)CC3)cc2N(C)C(=O)[C@H]1NC(=O)c1ncn(Cc2ccccc2)n1` [US20240270732, Compound I-28] reads 4.59 nM; that for `C#CCN1CCN(CC#Cc2ccc3c(c2)N(C)C(=O)[C@@H](NC(=O)c2ncn(Cc4cccnc4)n2)[C@@H](C)O3)CC1` [US20240270732, Compound I-73], 19.1 nM; that for `CN1C(=O)[C@@H](NC(=O)c2n[nH]c(Cc3ccccc3)n2)COc2ccc(C#CCOCCOCCOCCOCCOCC#Cc3ccc4c(c3)N(C)C(=O)[C@@H](NC(=O)c3n[nH]c(Cc5ccccc5)n3)CO4)cc21` [US20240270732, Compound I-82-1], 6.6 nM.

Compound `C[C@H]1Oc2ccc(C#CCN3CCN(CC#Cc4ccc5c(c4)N(C)C(=O)[C@@H](NC(=O)c4cnn(Cc6ccccc6)c4)[C@@H](C)O5)CC3)cc2N(C)C(=O)[C@H]1NC(=O)c1cnn(Cc2ccccc2)c1` [US20240270732, Compound I-48] showed an IC50 of 13.3 nM.
